Experiments:
[1] = biological target: Human immunodeficiency virus type 1 reverse transcriptase (Human immunodeficiency virus 1, UniProt Q72547); test: Inhibitory constant against HIV-1 reverse transcriptase
[2] = Half-life determined in fetal calf serum; format: ADME, Bos taurus; conditions: cattle

Row | Compound | Ki [1] [nM] | half-life [2] [h]
1 | Cc1cn([C@H]2C[C@H](F)[C@@H](COP(=O)(O)OP(=O)(O)OP(=O)(O)O)O2)c(=O)[nH]c1=O | 71 | 
2 | O=c1ccn([C@H]2CC[C@@H](COP(=O)(O)OP(=O)(O)OP(=O)(O)O)O2)c(=O)[nH]1 | 545 | 1
3 | Nc1nc(=O)n([C@H]2CS[C@@H](COP(=O)(O)OP(=O)(O)OP(=O)(O)O)O2)cc1F | 501 | 
4 | NC1=NCc2c(ncn2[C@H]2CC[C@@H](COP(=O)(O)OP(=O)(O)OP(=O)(O)O)O2)C1=O | 25 | 
5 | BP(=O)(OC[C@@H]1C=C[C@H](n2cnc3c(O)nc(N)nc32)C1)OP(=O)(O)C(F)(F)P(=O)(O)O (stereo not given in full) | 34 | 
6 | BP(=O)(OC[C@@H]1CC[C@H](n2ccc(N)nc2=O)O1)OP(=O)(O)C(F)(F)P(=O)(O)O (stereo not given in full) | 23 | > 48
7 | BP(=O)(OC[C@H]1O[C@@H](n2cc(C)c(=O)[nH]c2=O)C[C@@H]1F)OP(=O)(O)C(F)(F)P(=O)(O)O (stereo not given in full) | 46 | 
8 | BP(=O)(OC[C@@H]1CC[C@H](n2ccc(=O)[nH]c2=O)O1)OP(=O)(O)C(F)(F)P(=O)(O)O (stereo not given in full) | 438 | > 48
9 | BP(=O)(OC[C@@H]1C=C[C@H](n2cc(C)c(=O)[nH]c2=O)O1)OP(=O)(O)C(F)(F)P(=O)(O)O (stereo not given in full) | 45 | 
10 | BP(=O)(OC[C@@H]1CC[C@H](n2cnc3c(N)ncnc32)O1)OP(=O)(O)C(F)(F)P(=O)(O)O (stereo not given in full) | 47 | 
11 | BP(=O)(OC[C@H]1O[C@@H](n2cc(C)c(=O)[nH]c2=O)C[C@@H]1N=[N+]=[N-])OP(=O)(O)C(F)(F)P(=O)(O)O (stereo not given in full) | 94 | > 48
12 | BP(=O)(OC[C@H]1O[C@@H](n2cc(F)c(N)nc2=O)CS1)OP(=O)(O)C(F)(F)P(=O)(O)O (stereo not given in full) | 1770 | 
13 | Nc1nc(O)c2ncn([C@H]3C=CC(COP(=O)(O)OP(=O)(O)OP(=O)(O)O)C3)c2n1 (stereo not given in full) | 37 | 
14 | BP(=O)(OC[C@H]1O[C@@H](n2ccc(N)nc2=O)CS1)OP(=O)(O)C(F)(F)P(=O)(O)O (mixture of isomers) | 314 | > 48
15 | BP(=O)(OC[C@@H]1CC[C@H](n2cc(C)c(=O)[nH]c2=O)O1)OP(=O)(O)C(F)(F)P(=O)(O)O (mixture of isomers) | 236 | 
16 | BP(=O)(OC[C@@H]1CC[C@H](n2cnc3c(O)nc(N)cc32)O1)OP(=O)(O)C(F)(F)P(=O)(O)O (single isomer, unassigned; diastereomer I) | 71 | 
17 | Nc1ncnc2c1ncn2[C@H]1CC[C@@H](COP(=O)(O)OP(=O)(O)OP(=O)(O)O)O1 [DDA-TRIPHOSPHATE] | 20 | 
18 | Nc1ccn([C@H]2CC[C@@H](COP(=O)(O)OP(=O)(O)OP(=O)(O)O)O2)c(=O)n1 [DDCTP] |  | 0.8
19 | Cc1cn([C@H]2C[C@H](O)[C@@H](COP(=O)(O)OP(=O)(O)OP(=O)(O)O)O2)c(=O)[nH]c1=O [DEOXYTHYMIDINE_TRIPHOSPHATE] | 61 | 
20 | Nc1ccn([C@@H]2CS[C@H](COP(=O)(O)OP(=O)(O)OP(=O)(O)O)O2)c(=O)n1 [LAMIVUDINE TRIPHOSPHATE] | 188 | 3
21 | Cc1cn([C@H]2C=C[C@@H](COP(=O)(O)OP(=O)(O)OP(=O)(O)O)O2)c(=O)[nH]c1=O [STAVUDINE TRIPHOSPHATE] | 56 | 
22 | Nc1ccn([C@H]2CC[C@@H](CO)O2)c(=O)n1 [ZALCITABINE] | 51 | 
23 | Cc1cn([C@H]2C[C@H](N=[N+]=[N-])[C@@H](CO[P@](=O)(O)O[P@](=O)(O)OP(=O)(O)O)O2)c(=O)[nH]c1=O [ZIDOVUDINE TRIPHOSPHATE] | 91 | 2
